Assay results from PMC3337333 (Bioorganic & medicinal chemistry letters, 2012).

Columns and labels:
Hsp90 in HCT 116 cells = assay: Immunofluorescence staining of Hsp90 in treated colon cancer cells; format: cell-based; conditions: 17-AAG 24 hours 200 nM, compound 3 and compound 4 72 hours 5 µM, polyclonal antibody to Hsp90
[1] = target: Hsp90-TPR protein complexes; conditions: C-terminal binder; ref [21]; cited from earlier work
apoptosis = conditions: ref [4]; cited from earlier work

C=CCNC1=C2C[C@@H](C)C[C@H](OC)[C@H](O)[C@@H](C)/C=C(\C)[C@H](OC(N)=O)[C@@H](OC)/C=C\C=C(/C)C(=O)NC(=CC1=O)C2=O [17-AAG, 17-(allylamino)-17-demethoxygeldanamycin]
Hsp90 staining in cytosol versus DMSO control (Hsp90 in HCT 116 cells): intensify in brightness

CO[C@@H]1[C@@H](OC(N)=O)[C@@H](O)[C@H](Oc2ccc3c(O)c(NC(=O)c4ccc(O)c(CC=C(C)C)c4)c(=O)oc3c2C)OC1(C)C [novobiocin]
IC50, inhibition of binding between Hsp90 and four TPR-containing co-chaperones [1]: millimolar range

Sansalvamide A-amide [compound 1]
induction of apoptosis (apoptosis): induce apoptosis
